Measurements taken from patent US12162857B2, “Antiviral compounds” (priority 2022, dated 2024).

Assays:
[1] = tested on: Human RSV-A (“Long” strain); assay: RSV-A assay: CPE in Hep-2 cells, ATPlite readout; assay type: cell-based; conditions: human respiratory syncytial virus, 120 h, MOI 0.1, 5-day incubation
Source text: Hep-2 cells, (originally derived from tumors grown in irradiated-cortisonised weanling rats that had been injected with epidermoid carcinoma tissue from a person's larynx, but later found to be indistinguishable from HeLa cells by PCR DNA analysis), were used for the culturing of genotype A, “Long” strain RSV. Flasks were inoculated with RSV and viral stocks were collected once cytopathic effect (CPE) was greater than 90%. Viral stocks in 25% sucrose media were snap frozen using liquid nitrogen to increase viral stability. Viral stock titers were quantified by tissue culture infectious dose 50% (TCID50) using 8,000 cells per well and 3-fold viral dilutions across a 96-well plate, cultured for 4 days. Viral stock titers were also quantified by a plaque forming unit assay, as described elsewhere.
Following extensive parameter testing, the final assay is run as follows: Hep-2 cells are seeded into the inner 60 wells of a 96-well plate at 8,000 cells per well in a volume of 50 μL using Growth Media (DMEM without phenol red, 1% L-Glut, 1% Penn/Strep, 1% nonessential amino acids, 10% heat-inactivated FBS). 2-fold serial dilutions of control and test compounds are added to the wells in duplicate in a total volume of 25 μL. Viral stock is then added to the wells at a multiplicity of infection (MOI) of 0.1 in a volume of 25 μL, bringing the total volume of each well to 100 μL. The MOI is calculated using the PFU/mL, or TCID50 if unavailable. Each 96-well plate has a control column of 6 wells with cells and virus but no compound (negative control, max CPE), a column with cells but no compound or virus (positive control, minimum CPE), and a column with no cells or virus or compound (background plate/reagent control). The control wells with cells but no virus are given an additional 25 μL of growth media containing an equal quantity of sucrose as those wells receiving the viral stock in order to keep consistent in media and volume conditions. The outer wells of the plate are filled with 125 μL of moat media (DMEM, 100 Penn/Strep) to act as a thermal and evaporative moat around the test wells. Following a 5-day incubation period, the plates are read using ATPlite (50 uL added per well), which quantifies the amount of ATP (a measure of cell health) present in each well. Assay plates are read using the Envision luminometer. […] EC50 ranges are as follows: A<0.01 μM; B 0.01-0.05 μM; C>0.05 μM.

[2] = tested on: HMPV A2 TN/94-49; assay: HMPV antiviral assay: LLC-MK2 cells, ATP-Lite readout; assay type: cell-based; conditions: LLC-MK2, 168 h, MOI 0.005, 7 days incubation
In short: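 LLC-MK2 cells (5,000/well) were infected in suspension with HMPV A2 TN/94-49 at MOI 0.005 in serum-free OptiMEM with 2 μg/mL final TPCK-trypsin, then incubated for 7 days at 37 °C. Compounds were tested in duplicate from 2 μM in 10-point 2.5-fold dilutions. ATP-Lite luminescence, normalised to virus-only and cells-only controls as % cell health, gave EC50 by four-parameter fit.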

Compound: COc1cc(C(=O)NC[C@@](O)(c2ccccc2)c2cc(C(C)(C)O)c(F)c(-c3cc(Cl)c(F)cc3F)n2)cc2cn(C(F)F)nc12 [Example 62]
- EC50 [1]: < 10 nM
- EC50 [2]: < 1000 nM

Compound: CC(C)(O)c1cc([C@@](O)(CNC(=O)c2cc(Cl)c3nn(C4CC4)cc3c2)C2CC2)nc(-c2ccc(F)cc2)c1F [Example 6]
- EC50 [1]: < 10 nM
- EC50 [2]: < 1000 nM

Compound: COc1cc(C(=O)NC[C@@](O)(c2ccccc2)c2cc(C(=O)NC3(C)CC3)c(F)c(-c3cc(Cl)c(F)cc3F)n2)cc2cn(C3CC3)nc12 [Example 195]
- EC50 [1]: > 50 nM
- EC50 [2]: > 1000 nM

Compound: COc1cc(C(=O)NC[C@](O)(c2cc(C(C)(C)O)c(F)c(-c3ccc(F)cc3)n2)C2CC2)cc2cn(C3CC3)nc12 [Example 1]
- EC50 [1]: < 10 nM
- EC50 [2]: < 1000 nM

Compound: COc1c(C(C)(C)O)cc([C@@](O)(CNC(=O)c2cc(OC)c3nn(C4CC4)cc3c2)C2CC2)nc1-c1cc(Cl)c(F)cc1F [Example 164]
- EC50 [1]: > 50 nM
- EC50 [2]: > 1000 nM

Compound: COc1cc(C(=O)NC[C@](O)(c2cc(C3(C(N)=O)CC3)cc(-c3cc(Cl)c(F)cc3F)n2)C2CC2)cc2cn(C3CC3)nc12 (single isomer, unassigned) [Example 24]
- EC50 [1]: 10 to 50 nM
- EC50 [2]: > 1000 nM

Compound: COc1cc(C(=O)NC[C@@](O)(c2ccccc2)c2cc(C(C)(C)O)c(F)c(-c3ccc(F)c(Cl)c3F)n2)cc2cn(C3CC3)nc12 [Example 123]
- EC50 [1]: < 10 nM
- EC50 [2]: < 1000 nM

Compound: NC(=O)C1(c2cc([C@@](O)(CNC(=O)c3cc(OC4CC4)c4nn(C(F)F)cc4c3)C3CC3)nc(-c3cc(Cl)c(F)cc3F)c2F)CC1 (single isomer, unassigned) [Example 18]
- EC50 [1]: 10 to 50 nM
- EC50 [2]: > 1000 nM

Compound: COc1cc(C(=O)NC[C@@](O)(c2ccccc2)c2nc(-c3cc(Cl)c(F)cc3F)c(F)c(C(C)(C)O)c2F)cc2cn(C3CC3)nc12 [Example 127]
- EC50 [1]: < 10 nM
- EC50 [2]: < 1000 nM

Compound: COc1cc(C(=O)NC[C@](O)(c2cc(C3(O)CNC3)c(F)c(-c3cc(Cl)c(F)cc3F)n2)C2CC2)cc2cn(C3CC3)nc12 [Example 170]
- EC50 [1]: > 50 nM
- EC50 [2]: > 1000 nM

Compound: COc1cc(C(=O)NC[C@](O)(c2cc(C3(C(N)=O)CC3)c(F)c(-c3cc(Cl)c(F)cc3F)n2)C2CC2)cc2cc(Cl)c(C)nc12 (single isomer, unassigned) [Example 19]
- EC50 [1]: < 10 nM
- EC50 [2]: > 1000 nM

Compound: COc1cc(C(=O)NC[C@@](O)(c2ccccc2)c2cc(C(C)(C)O)c(F)c(-c3cc(F)c(F)cc3F)n2)cc2cn(C3CC3)nc12 [Example 86]
- EC50 [1]: < 10 nM
- EC50 [2]: > 1000 nM

Compound: Cc1nc2c(OC3CC3)cc(C(=O)NC[C@](O)(c3cc(C(O)(C(F)(F)F)C(F)(F)F)c(F)c(-c4ccc(F)cc4)n3)C3CC3)cc2cc1Cl (single isomer, unassigned) [Example 48]
- EC50 [1]: > 50 nM
- EC50 [2]: > 1000 nM

Compound: COc1cc(C(=O)NC[C@](O)(c2cc(C3(C#N)CC3)c(F)c(-c3cc(Cl)c(F)cc3F)n2)C2CC2)cc2cn(C(F)F)nc12 [Example 10]
- EC50 [1]: 10 to 50 nM
- EC50 [2]: > 1000 nM

Compound: COc1cc(C(=O)NC[C@](O)(c2cc(C(C)(C)O)c(F)c(-c3cc(Cl)c(F)cc3F)n2)C2CC2)cc2cc(Cl)c(C)nc12 [Example 57]
- EC50 [1]: < 10 nM
- EC50 [2]: < 1000 nM

Compound: CC(C)(O)c1cc([C@@](O)(CNC(=O)c2cc(OC3CC3)c3nn(C4(F)CC4)cc3c2)C2CC2)nc(-c2ccc(F)cc2)c1F [Example 5]
- EC50 [1]: < 10 nM
- EC50 [2]: < 1000 nM

Compound: COc1cc(C(=O)NC[C@@](O)(c2ccccc2)c2cc(C(C)(C)O)c(F)c(-c3ccc(F)c(Cl)c3Cl)n2)cc2cn(C3CC3)nc12 [Example 67]
- EC50 [1]: < 10 nM
- EC50 [2]: < 1000 nM

Compound: [2H]C([2H])([2H])C(O)(c1cc([C@@](O)(CNC(=O)c2cc(OC)c3nn(C(F)F)cc3c2)c2ccccc2)nc(-c2cc(Cl)c(F)cc2F)c1F)C([2H])([2H])[2H] [Example 185]
- EC50 [1]: < 10 nM
- EC50 [2]: < 1000 nM

Compound: COc1cc(C(=O)NC[C@@](O)(c2ccccc2)c2cc(C(C)(C)O)c(Cl)c(-c3ccc4c(c3Cl)OC(F)(F)O4)n2)cc2cn(C3CC3)nc12 [Example 136]
- EC50 [1]: < 10 nM
- EC50 [2]: < 1000 nM
